Laboratory results taken from US12077503B2, “Substituted cyclic amides and their use as herbicides” (FMC CORPORATION, priority 2015, dated 2024).

Assays:
Assay type in all cases: in vivo
[1] = test system: ivy-leaved morning glory (Ipomoea hederacea); experiment: Test G Post-Emergence Protocol; conditions: Ipomoea, post-emergence, 312 h; for pest or weed control at 15.625 g/ha: 15.625 g ai/ha, evaluated after 13 days (100=total damage to plant; 0=no damage to plant), read-out: Morningglory, Ivy-leaved damage rating; for pest or weed control at 62.5 g/ha: 62.5 g ai/ha, read-out: Morningglory, Ivy-leaved damage rating (100=total damage to plant; 0=no damage to plant); for pest or weed control at 62.5 g/ha / pest or weed control at 250 g/ha: evaluated after 13 days; for pest or weed control at 250 g/ha: 250 g ai/ha, read-out: damage to plant, Morningglory, Ivy-leaved (100=total damage to plant; 0=no damage to plant)
Procedure, shortened: (§1)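 Post-emergence herbicidal damage, scored visually 0–100 at 13 days. Application at 15.625, 62.5 or 250 g/ha onto 8-day-old plants grown under glasshouse control.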

[2] = test system: giant foxtail (Setaria faberi); experiment: Test G Post-Emergence Protocol; conditions: Setaria faberi, post-emergence, 312 h; for pest or weed control at 15.625 g/ha: 15.625 g ai/ha, evaluated after 13 days (100=total damage to plant; 0=no damage to plant), read-out: Foxtail, Giant damage rating; for pest or weed control at 62.5 g/ha: 62.5 g ai/ha, read-out: Foxtail, Giant damage rating (100=total damage to plant; 0=no damage to plant); for pest or weed control at 62.5 g/ha / pest or weed control at 250 g/ha: evaluated after 13 days; for pest or weed control at 250 g/ha: 250 g ai/ha, read-out: damage to plant, Foxtail, Giant (100=total damage to plant; 0=no damage to plant)
Procedure, shortened: as §1

[3] = test system: corn (Zea mays); experiment: Test G Post-Emergence Protocol; conditions: Zea mays, post-emergence, 312 h; for plant injury at 15.625 g/ha: 15.625 g ai/ha, evaluated after 13 days (100=total damage to plant; 0=no damage to plant), read-out: Corn damage rating; for plant injury at 62.5 g/ha: 62.5 g ai/ha, read-out: Corn damage rating (100=total damage to plant; 0=no damage to plant); for plant injury at 62.5 g/ha / plant injury at 250 g/ha: evaluated after 13 days; for plant injury at 250 g/ha: 250 g ai/ha, read-out: damage to plant, Corn (100=total damage to plant; 0=no damage to plant)
Procedure, shortened: as §1

[4] = test system: redroot pigweed (Amaranthus retroflexus); experiment: Test G Post-Emergence Protocol; conditions: Amaranthus retroflexus, post-emergence, 312 h; for pest or weed control at 15.625 g/ha: 15.625 g ai/ha, evaluated after 13 days (100=total damage to plant; 0=no damage to plant), read-out: Pigweed, Redroot damage rating; for pest or weed control at 62.5 g/ha: 62.5 g ai/ha, read-out: Pigweed, Redroot damage rating (100=total damage to plant; 0=no damage to plant); for pest or weed control at 62.5 g/ha / pest or weed control at 250 g/ha: evaluated after 13 days; for pest or weed control at 250 g/ha: 250 g ai/ha, read-out: damage to plant, Pigweed, Redroot (100=total damage to plant; 0=no damage to plant)
Procedure, shortened: as §1

[5] = test system: barnyardgrass (Echinochloa crus-galli); experiment: Test G Post-Emergence Protocol; conditions: Echinochloa crus-galli, post-emergence, 312 h; for pest or weed control at 15.625 g/ha: 15.625 g ai/ha, evaluated after 13 days (100=total damage to plant; 0=no damage to plant), read-out: Barnyardgrass damage rating; for pest or weed control at 62.5 g/ha: 62.5 g ai/ha, read-out: Barnyardgrass damage rating (100=total damage to plant; 0=no damage to plant); for pest or weed control at 62.5 g/ha / pest or weed control at 250 g/ha: evaluated after 13 days; for pest or weed control at 250 g/ha: 250 g ai/ha, read-out: damage to plant, Barnyardgrass (100=total damage to plant; 0=no damage to plant)
Procedure, shortened: as §1

[6] = test system: velvetleaf (Abutilon theophrasti); experiment: Test G Post-Emergence Protocol; conditions: Abutilon theophrasti, post-emergence, 312 h; for pest or weed control at 15.625 g/ha: 15.625 g ai/ha, evaluated after 13 days (100=total damage to plant; 0=no damage to plant), read-out: Velvetleaf damage rating; for pest or weed control at 62.5 g/ha: 62.5 g ai/ha, read-out: Velvetleaf damage rating (100=total damage to plant; 0=no damage to plant); for pest or weed control at 62.5 g/ha / pest or weed control at 250 g/ha: evaluated after 13 days; for pest or weed control at 250 g/ha: 250 g ai/ha, read-out: damage to plant, Velvetleaf (100=total damage to plant; 0=no damage to plant)
Procedure, shortened: as §1

[7] = test system: ivy-leaved morning glory (Ipomoea hederacea); experiment: Test G Pre-Emergence Protocol; conditions: Ipomoea, pre-emergence, 312 h, evaluated after 13 days; for pest or weed control at 15.625 g/ha: 15.625 g ai/ha, read-out: Morning-glory, Ivy-leaved damage rating (100=total damage to plant; 0=no damage to plant); for pest or weed control at 62.5 g/ha: 62.5 g ai/ha, 100=total damage to plant, 0=no damage to plant, read-out: plant damage rating, Morningglory, Ivy-leaved; for pest or weed control at 250 g/ha: 250 g ai/ha, read-out: Morningglory, Ivy-leaved damage rating (100=total damage to plant; 0=no damage to plant)
Procedure, shortened: (§2)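 Spraying took place one day after sowing, at 15.625, 62.5 or 250 g/ha, using an acetone/water (50:50) spray solution containing 0.5% Tween 20. Plants were kept under glasshouse conditions (24/16 °C, 14 h light, 65% humidity, watered twice daily), and injury was rated 0–100 at day 13.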

[8] = test system: giant foxtail (Setaria faberi); experiment: Test G Pre-Emergence Protocol; conditions: Setaria faberi, pre-emergence, 312 h, evaluated after 13 days; for pest or weed control at 15.625 g/ha: 15.625 g ai/ha; for pest or weed control at 15.625 g/ha / pest or weed control at 250 g/ha: read-out: Foxtail, Giant damage rating (100=total damage to plant; 0=no damage to plant); for pest or weed control at 62.5 g/ha: 62.5 g ai/ha, 100=total damage to plant, 0=no damage to plant, read-out: plant damage rating, Foxtail, Giant; for pest or weed control at 250 g/ha: 250 g ai/ha
Procedure, shortened: as §2

[9] = test system: corn (Zea mays); experiment: Test G Pre-Emergence Protocol; conditions: Zea mays, pre-emergence, 312 h, evaluated after 13 days; for plant injury at 15.625 g/ha: 15.625 g ai/ha; for plant injury at 15.625 g/ha / plant injury at 250 g/ha: read-out: Corn damage rating (100=total damage to plant; 0=no damage to plant); for plant injury at 62.5 g/ha: 62.5 g ai/ha, 100=total damage to plant, 0=no damage to plant, read-out: plant damage rating, Corn; for plant injury at 250 g/ha: 250 g ai/ha
Procedure, shortened: as §2

[10] = test system: redroot pigweed (Amaranthus retroflexus); experiment: Test G Pre-Emergence Protocol; conditions: Amaranthus retroflexus, pre-emergence, 312 h, evaluated after 13 days; for pest or weed control at 15.625 g/ha: 15.625 g ai/ha; for pest or weed control at 15.625 g/ha / pest or weed control at 250 g/ha: read-out: Pigweed, Redroot damage rating (100=total damage to plant; 0=no damage to plant); for pest or weed control at 62.5 g/ha: 62.5 g ai/ha, 100=total damage to plant, 0=no damage to plant, read-out: plant damage rating, Pigweed, Redroot; for pest or weed control at 250 g/ha: 250 g ai/ha
Procedure, shortened: as §2

[11] = test system: barnyardgrass (Echinochloa crus-galli); experiment: Test G Pre-Emergence Protocol; conditions: Echinochloa crus-galli, pre-emergence, 312 h, evaluated after 13 days; for pest or weed control at 15.625 g/ha: 15.625 g ai/ha, read-out: Barnyard grass damage rating (100=total damage to plant; 0=no damage to plant); for pest or weed control at 62.5 g/ha: 62.5 g ai/ha, 100=total damage to plant, 0=no damage to plant, read-out: plant damage rating, Barnyardgrass; for pest or weed control at 250 g/ha: 250 g ai/ha, read-out: Barnyardgrass damage rating (100=total damage to plant; 0=no damage to plant)
Procedure, shortened: as §2

[12] = test system: velvetleaf (Abutilon theophrasti); experiment: Test G Pre-Emergence Protocol; conditions: Abutilon theophrasti, pre-emergence, 312 h, evaluated after 13 days; for pest or weed control at 15.625 g/ha: 15.625 g ai/ha; for pest or weed control at 15.625 g/ha / pest or weed control at 250 g/ha: read-out: Velvetleaf damage rating (100=total damage to plant; 0=no damage to plant); for pest or weed control at 62.5 g/ha: 62.5 g ai/ha, 100=total damage to plant, 0=no damage to plant, read-out: plant damage rating, Velvetleaf; for pest or weed control at 250 g/ha: 250 g ai/ha
Procedure, shortened: as §2

COc1cc(NC(=O)[C@@H]2C(=O)N(C)C[C@H]2c2ccc(C(F)(F)F)cc2)ccn1 (racemic) [Compound 1589]
0%: pest or weed control at 15.625 g/ha [1] | pest or weed control at 62.5 g/ha [1] | pest or weed control at 250 g/ha [1] | pest or weed control at 15.625 g/ha [2] | pest or weed control at 62.5 g/ha [2] | pest or weed control at 250 g/ha [2] | plant injury at 15.625 g/ha [3] | plant injury at 62.5 g/ha [3] | plant injury at 250 g/ha [3] | pest or weed control at 15.625 g/ha [4] | pest or weed control at 62.5 g/ha [4] | pest or weed control at 250 g/ha [4] | pest or weed control at 15.625 g/ha [5] | pest or weed control at 62.5 g/ha [5] | pest or weed control at 250 g/ha [5] | pest or weed control at 15.625 g/ha [6] | pest or weed control at 62.5 g/ha [6] | pest or weed control at 250 g/ha [6] | pest or weed control at 15.625 g/ha [7] | pest or weed control at 62.5 g/ha [7] | pest or weed control at 250 g/ha [7] | pest or weed control at 15.625 g/ha [8] | pest or weed control at 62.5 g/ha [8] | pest or weed control at 250 g/ha [8] | plant injury at 15.625 g/ha [9] | plant injury at 62.5 g/ha [9] | plant injury at 250 g/ha [9] | pest or weed control at 15.625 g/ha [10] | pest or weed control at 62.5 g/ha [10] | pest or weed control at 250 g/ha [10] | pest or weed control at 15.625 g/ha [11] | pest or weed control at 62.5 g/ha [11] | pest or weed control at 250 g/ha [11] | pest or weed control at 15.625 g/ha [12] | pest or weed control at 62.5 g/ha [12] | pest or weed control at 250 g/ha [12]

Cc1nnc(NC(=O)[C@@H]2C(=O)N(C)C[C@H]2c2ccc(C(F)(F)F)cc2)s1 (racemic) [Compound 1559]
0%: pest or weed control at 15.625 g/ha [1] | pest or weed control at 62.5 g/ha [1] | pest or weed control at 250 g/ha [1] | pest or weed control at 15.625 g/ha [2] | pest or weed control at 62.5 g/ha [2] | pest or weed control at 250 g/ha [2] | plant injury at 15.625 g/ha [3] | plant injury at 62.5 g/ha [3] | plant injury at 250 g/ha [3] | pest or weed control at 15.625 g/ha [4] | pest or weed control at 62.5 g/ha [4] | pest or weed control at 250 g/ha [4] | pest or weed control at 15.625 g/ha [5] | pest or weed control at 62.5 g/ha [5] | pest or weed control at 250 g/ha [5] | pest or weed control at 15.625 g/ha [6] | pest or weed control at 62.5 g/ha [6] | pest or weed control at 250 g/ha [6] | pest or weed control at 15.625 g/ha [7] | pest or weed control at 62.5 g/ha [7] | pest or weed control at 250 g/ha [7] | pest or weed control at 15.625 g/ha [8] | pest or weed control at 62.5 g/ha [8] | pest or weed control at 250 g/ha [8] | plant injury at 15.625 g/ha [9] | plant injury at 62.5 g/ha [9] | plant injury at 250 g/ha [9] | pest or weed control at 15.625 g/ha [10] | pest or weed control at 62.5 g/ha [10] | pest or weed control at 250 g/ha [10] | pest or weed control at 15.625 g/ha [11] | pest or weed control at 62.5 g/ha [11] | pest or weed control at 250 g/ha [11] | pest or weed control at 15.625 g/ha [12] | pest or weed control at 62.5 g/ha [12] | pest or weed control at 250 g/ha [12]
